Laboratory results published in article PMC3274592 (Archives of Biochemistry and Biophysics, 2011).

What was measured:
CYP158A1 [1] = biological target: CYP158A1 (Streptomyces coelicolor, UniProt Q9KZF5); assay: UV-vis difference spectral titration; format: binding
CYP158A1 [2] = biological target: CYP158A1 (Streptomyces coelicolor, UniProt Q9KZF5, K90I); assay: UV-vis difference spectral titration; format: binding
Sequence of CYP158A1 (Streptomyces coelicolor, UniProt Q9KZF5, K90I) (Q9KZF5 whole entry K90I): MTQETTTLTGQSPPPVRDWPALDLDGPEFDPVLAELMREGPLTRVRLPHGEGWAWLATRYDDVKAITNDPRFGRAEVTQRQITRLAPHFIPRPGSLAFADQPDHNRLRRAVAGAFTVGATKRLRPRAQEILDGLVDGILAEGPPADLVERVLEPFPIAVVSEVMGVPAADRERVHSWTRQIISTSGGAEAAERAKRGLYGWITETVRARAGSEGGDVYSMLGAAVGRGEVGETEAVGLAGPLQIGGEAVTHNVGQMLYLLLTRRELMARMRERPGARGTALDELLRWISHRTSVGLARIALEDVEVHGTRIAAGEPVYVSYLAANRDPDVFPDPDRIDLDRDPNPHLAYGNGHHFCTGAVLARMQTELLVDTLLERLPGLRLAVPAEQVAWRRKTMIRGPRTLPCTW

Sequence of CYP158A1 (Streptomyces coelicolor, UniProt Q9KZF5) (Q9KZF5 whole entry): as the sequence (Q9KZF5 whole entry K90I) above, with I90K counted along it

O=C1C(O)=CC(=O)c2c(O)cc(O)cc21 [flaviolin] was tested, and the Kd (CYP158A1 [1]) was 10.5 µM and the Kd (CYP158A1 [2]) was 16.9 µM.
